Test results published in patent US20090170762A1, “Treatment of Diabetes Related Obesity” (UUTech Limited, priority 2005, published 2009).
Ends that are not written are not given here.

Key:
DPP-IV = DPP-IV (Homo sapiens, UniProt P27487); assay: Degradation of GIP and Glu3-substituted GIP analogs by DPP-IV (HPLC); assay type: in vitro ADME; conditions: for half-life at 2 μm: DPP-IV enzyme (5 mU) in buffer, pH 7.8, incubation with DPP-IV, unit not given (time points in hrs), read-out: Estimated Half-Life (converted); for Intact Peptide Remaining (%) 0 hrs. / remaining at 2 h, 2 μm / remaining at 4 h, 2 μm / remaining at 8 h, 2 μm: incubation with DPP-IV (5 mU), 37°C; for Intact Peptide Remaining (%) 0 hrs.: pH 7.8, 0 hrs; for remaining at 2 h, 2 μm / remaining at 4 h, 2 μm / remaining at 8 h, 2 μm: isolated DPP-IV enzyme (5 mU); for remaining at 2 h, 2 μm: pH 7.8, 2 hrs, read-out: Intact Peptide Remaining (%) 2 hrs.; for remaining at 4 h, 2 μm: pH 7.8, 4 hrs, read-out: Intact Peptide Remaining (%) 4 hrs.; for remaining at 8 h, 2 μm: pH 7.8, 8 hrs, read-out: Intact Peptide Remaining (%) 8 hrs.; for resistance to DPP-IV degradation: words, up to 8 hours incubation
Sequence of DPP-IV (P27487 whole entry, species assumed): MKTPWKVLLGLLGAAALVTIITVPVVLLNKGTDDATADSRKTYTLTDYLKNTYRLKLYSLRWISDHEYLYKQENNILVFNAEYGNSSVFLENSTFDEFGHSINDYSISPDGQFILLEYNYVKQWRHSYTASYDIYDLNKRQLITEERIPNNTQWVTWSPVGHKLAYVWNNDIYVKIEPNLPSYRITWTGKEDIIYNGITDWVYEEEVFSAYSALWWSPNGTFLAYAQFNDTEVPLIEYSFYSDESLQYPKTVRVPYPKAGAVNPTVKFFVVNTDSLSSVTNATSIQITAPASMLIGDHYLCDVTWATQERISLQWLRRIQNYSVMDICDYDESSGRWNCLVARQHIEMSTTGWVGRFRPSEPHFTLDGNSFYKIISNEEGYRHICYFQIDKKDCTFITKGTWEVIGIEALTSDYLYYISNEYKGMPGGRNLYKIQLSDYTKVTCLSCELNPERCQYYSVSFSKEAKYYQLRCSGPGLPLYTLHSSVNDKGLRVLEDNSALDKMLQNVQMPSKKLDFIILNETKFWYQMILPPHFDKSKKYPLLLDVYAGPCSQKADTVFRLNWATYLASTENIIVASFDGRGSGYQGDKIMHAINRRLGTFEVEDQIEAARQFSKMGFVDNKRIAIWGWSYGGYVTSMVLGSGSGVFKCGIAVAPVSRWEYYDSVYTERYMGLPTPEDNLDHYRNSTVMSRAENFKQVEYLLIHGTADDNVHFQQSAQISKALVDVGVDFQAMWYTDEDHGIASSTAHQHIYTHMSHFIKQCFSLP

human GIP-R = target: T1, human GIP-R (Homo sapiens, UniProt P48546); assay: Cyclic AMP production in GIP-R transfected CHL cells; assay type: cell-based; conditions: for remaining activity at 0.1 µM: CHL, read-out: cAMP response in presence of 10^-7 M GIP (% GIP max); for inhibition of GIP-stimulated cAMP production: in presence of GIP (10^-7 m)
T1 construct: expressed in transfected cells; host or cells: Chinese Hamster Lung (CHL) fibroblast cells, stably transfected
T1 sequence (P48546 22-466): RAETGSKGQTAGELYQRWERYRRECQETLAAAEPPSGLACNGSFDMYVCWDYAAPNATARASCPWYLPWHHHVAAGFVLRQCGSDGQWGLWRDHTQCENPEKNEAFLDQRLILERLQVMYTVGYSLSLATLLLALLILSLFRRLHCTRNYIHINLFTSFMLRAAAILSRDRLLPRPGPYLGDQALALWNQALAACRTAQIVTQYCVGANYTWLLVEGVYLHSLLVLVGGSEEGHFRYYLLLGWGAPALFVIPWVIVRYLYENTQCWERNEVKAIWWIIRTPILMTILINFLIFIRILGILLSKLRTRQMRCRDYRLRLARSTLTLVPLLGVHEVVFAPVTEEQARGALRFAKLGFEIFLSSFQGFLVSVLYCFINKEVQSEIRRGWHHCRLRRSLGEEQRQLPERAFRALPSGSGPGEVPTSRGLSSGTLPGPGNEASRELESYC
Method: Tissue Culture. […] (v/v) fetal bovine serum, 1% (v/v) antibiotics (100 U/ml penicillin, 0.1 mg/ml streptomycin) (all from Gibco, Paisley, Strathclyde, Scotland). BRIN-BD11 cells were cultured in RPMI-1640 tissue culture medium containing 10% (v/v) fetal bovine serum, 1% (v/v) antibiotics (100 U/ml penicillin, 0.1 mg/ml streptomycin) and 11.1 mm glucose. The origin and secretory characteristics of these cells have been described in detail previously (McClenaghan, N. H. et al., 1996, Diabetes 45:1132-1140). The cells were maintained in sterile tissue culture flasks (Corning Glass Works, Sunderland, UK) at 37° C. in an atmosphere of 5% CO2 and 95% air using a LEEC incubator (Laboratory Technical Engineering, Nottingham, UK).
Methods. […] The culture medium was removed and cells subsequently washed twice with 2 ml ice-cold HBS buffer (130 mm NaCl, 20 mm HEPES, 0.9 mm NaHPO4, 0.8 mm MgSO4, 5.4 mm KCl, 1.8 mm CaCl2, 5.6 mm glucose and 25 μm phenol red) (pH 7.4). […] The medium was subsequently removed and the cells lysed with […] of lysing solution (5% TCA, 3% SDS, 92% H2O, also containing 0.1 mm unlabelled cAMP and 0.1 mm unlabelled ATP) (Sigma, Poole, Dorset, UK). The plates were then left on a shaker at room temperature for 30 minutes and tritiated cAMP formation determined by column chromatography using Dowex and alumina ion exchange columns (BioRad Life Science Research, Alpha Analytical, Larne, UK) as previously described (Gault, V. A. et al 2002, Biochem. J. 367:913-920).

BRIN-BD11 cells = assay: Insulin secretion from BRIN-BD11 cells; assay type: cell-based; conditions: for Maximal insulin response (% GIP max) / Insulin response in presence of 10^-7 M GIP (% GIP max): 5.6 mm glucose; for Maximal insulin response (% GIP max): 20 min; for Insulin response in presence of 10^-7 M GIP (% GIP max): in presence of 10^-7 M native GIP; for effect on GIP-stimulated insulin secretion: in presence of GIP (10^-7 m)
Method: Tissue Culture. Chinese Hamster Lung (CHL) fibroblast cells stably transfected with the human GIP-R were cultured in DMEM tissue culture medium containing 10%. (v/v) fetal bovine serum, 1% (v/v) antibiotics (100 U/ml penicillin, 0.1 mg/ml streptomycin) (all from Gibco, Paisley, Strathclyde, Scotland). BRIN-BD11 cells were cultured in RPMI-1640 tissue culture medium containing 10% (v/v) fetal bovine serum, 1% (v/v) antibiotics (100 U/ml penicillin, 0.1 mg/ml streptomycin) and 11.1 mm glucose. The origin and secretory characteristics of these cells have been described in detail previously (McClenaghan, N. H. et al., 1996, Diabetes 45:1132-1140). The cells were maintained in sterile tissue culture flasks (Corning Glass Works, Sunderland, UK) at 37° C. in an atmosphere of 5% CO2 and 95% air using a LEEC incubator (Laboratory Technical Engineering, Nottingham, UK).
Methods. Insulin release from BRIN-BD11 cells was determined by use of cell monolayers as described previously (Gault, V. A. et al. 2002, Biochem. J. 367:913-920). In brief, BRIN-BD11 cells were seeded into 24-well plates (Nunc, Roskilde, Denmark) at a density of 1.5×10^5 cells per well and allowed to attach overnight in RPMI-1640 culture medium at 37° C. Acute tests for insulin secretion were preceded by 40 minutes pre-incubation at 37° C. in 1.0 ml Krebs Ringer Bicarbonate Buffer (KRBB, 115 mm NaCl, 4.7 mm KCl, 1.28 mm CaCl2, 1.2 mM MgSO4, 1.2 mm KH2PO4, 25 mM HEPES and 10 mm NaHCO3; pH 7.4 with NaOH) supplemented with 0.1% (w/v) BSA and 1.1 mM glucose. […] After 20 minutes incubation, the buffer was removed and used for measurement of insulin by radioimmunoassay (Flatt, P. R. and Bailey, C. J., 1981, Diabetologia 5:573-577).

ob/ob mice = assay: Acute antihyperglycaemic and insulin releasing activity with glucose and native GIP in ob/ob mice; assay type: in vivo, mouse; conditions: for plasma glucose and insulin profiles when administered together with native GIP: 25 nmol/kg i.p. with GIP and glucose 18 mmol/kg, vs native GIP
Method: Animals. Obese diabetic (ob/ob) mice derived from the colony maintained at Aston University, UK (Bailey C. J. et al., 1982, Int. J. Obes. 6:11-21) were used at 14-18 weeks of age. Animals were age-matched, divided into groups and housed individually in an air-conditioned room at 22±2° C. with a 12 hour light: 12 hour dark cycle (08:00-20:00 hr). Drinking water and a standard rodent maintenance diet (Trouw Nutrition, Cheshire, UK) were freely available. All animal experiments were carried out in accordance with the UK Animals (Scientific Procedures) Act 1986.
Biochemical analysis. Plasma glucose was assayed by an automated glucose oxidase procedure ([…]) using a Beckman Glucose Analyzer II (Beckman Instruments, Galway, Ireland). Plasma insulin was assayed by radioimmunoassay.
Methods. […] All test solutions were administered in a final volume of 5 ml/kg body weight. Blood samples were collected from the cut tip of the tail vein of conscious mice into chilled fluoride/heparin coated glucose microcentrifuge tubes (Sarstedt, Numbrecht, Germany) immediately prior to injection and at 15, 30 and 60 minutes post injection. Blood samples were immediately centrifuged using a Beckmnan microcentrifuge (Beckman Instruments, High Wycombe, Buckinghamshire, UK) for 30 seconds at 13,000×g. Plasma glucose was assayed using a Beckman Glucose Analyzer n (Beckman Instruments, High Wycombe, Buckinghamshire, UK) (Stevens, J. F., 1971, Clin. Chim. Acta 32:199-201) and plasma insulin was determined by RIA (Flatt, P. R. and Bailey, C. J., 1981, Diabetologia 5:573-577). All animal studies were carried out in accordance with the UK Animals (Scientific Procedures) Act 1986.

Row | Compound | half-life at 2 μm (DPP-IV) [min] | Intact Peptide Remaining (%) 0 hrs. (DPP-IV) [%] | remaining at 2 h, 2 μm (DPP-IV) [%] | remaining at 4 h, 2 μm (DPP-IV) [%] | remaining at 8 h, 2 μm (DPP-IV) [%] | EC50 (human GIP-R) [nM] | remaining activity at 0.1 µM (human GIP-R) [%] | inhibition of GIP-stimulated cAMP production (human GIP-R) | Maximal insulin response (% GIP max) (BRIN-BD11 cells; BRIN-BD11 cells) | Insulin response in presence of 10^-7 M GIP (% GIP max) (BRIN-BD11 cells; BRIN-BD11 cells) | effect on GIP-stimulated insulin secretion (BRIN-BD11 cells) | plasma glucose and insulin profiles when administered together with native GIP (ob/ob mice) | resistance to DPP-IV degradation (DPP-IV) | glycaemic excursion and insulin response (ob/ob mice; compared with i.p. glucose alone) | stimulation of insulin secretion compared with control incubations (BRIN-BD11 cells; BRIN-BD11 cells, vs 5.6 mm glucose alone) [fold]
1 | YAWGTFISDYSIAMDKIHQQDFVNWLLAQKGKKNDWKHNITQ [(Trp^3)GIP] | 78 | 100 | 22.5 ± 1.7 | 4.7 ± 2.4 | 0 | 3 | 78 ± 2 | did not significantly inhibit | 73 ± 2 | 100 ± 5 | did not significantly affect | did not significantly alter |  |  | 
2 | YAFGTFISDYSIAMDKIHQQDFVNWLLAQKGKKNDWKHNITQ [(Phe^3)GIP] | 72 | 100 | 15 ± 5.2 | 2.5 ± 0.1 | 0 | 1 | 62 ± 3 | significantly inhibited | 75 ± 3 | 73 ± 3 | significantly inhibited | significantly inhibited the action of GIP |  |  | 
3 | CC[C@H](C)[C@H](NC(=O)[C@H](CO)NC(=O)[C@H](Cc1ccc(O)cc1)NC(=O)[C@H](CC(=O)O)NC(=O)[C@H](CO)NC(=O)[C@@H](NC(=O)[C@H](Cc1ccccc1)NC(=O)[C@@H](NC(=O)CNC(=O)[C@H](CCC(=O)O)NC(=O)[C@H](C)NC(=O)[C@@H](N)Cc1ccc(O)cc1)[C@@H](C)O)[C@@H](C)CC)C(=O)N[C@@H](C)C(=O)N[C@@H](CCSC)C(=O)N[C@@H](CC(=O)O)C(=O)N[C@@H](CCCCN)C(=O)N[C@H](C(=O)N[C@@H](Cc1c[nH]cn1)C(=O)N[C@@H](CCC(N)=O)C(=O)N[C@@H](CCC(N)=O)C(=O)N[C@@H](CC(=O)O)C(=O)N[C@@H](Cc1ccccc1)C(=O)N[C@H](C(=O)N[C@@H](CC(N)=O)C(=O)N[C@@H](Cc1c[nH]c2ccccc12)C(=O)N[C@@H](CC(C)C)C(=O)N[C@@H](CC(C)C)C(=O)N[C@@H](C)C(=O)N[C@@H](CCC(N)=O)C(=O)N[C@@H](CCCCN)C(=O)NCC(=O)N[C@@H](CCCCN)C(=O)N[C@@H](CCCCN)C(=O)N[C@@H](CC(N)=O)C(=O)N[C@@H](CC(=O)O)C(=O)N[C@@H](Cc1c[nH]c2ccccc12)C(=O)N[C@@H](CCCCN)C(=O)N[C@@H](Cc1c[nH]cn1)C(=O)N[C@@H](CC(N)=O)C(=O)N[C@H](C(=O)N[C@H](C(=O)N[C@@H](CCC(N)=O)C(=O)O)[C@@H](C)O)[C@@H](C)CC)C(C)C)[C@@H](C)CC [GIP, reference compound] | 78 | 100 | 20.9 ± 1.6 | 4.9 ± 1.2 | 0 |  |  |  | 100 | 100 |  |  | complete degradation by 8 hours | decreased the glycaemic excursion and enhanced insulin response | 
4 | YAAGTFISDYSIAMDKIHQQDFVNWLLAQKGKKNDWKHNITQ [(Ala^3)GIP] | 66 | 100 | 5.9 ± 1.7 | 2.7 ± 0.1 | 0 | 2.3 | 88 ± 3 | did not significantly inhibit | 111 ± 6 | 115 ± 3 | did not significantly affect | significantly inhibited the action of GIP | least resistant |  | 1.7
